Holding throughout (format): functional, cell-based
Test [1] deals with T1, Bombesin receptor subtype-3 (Homo sapiens, UniProt P32247).
T1 sequence (P32247 whole entry): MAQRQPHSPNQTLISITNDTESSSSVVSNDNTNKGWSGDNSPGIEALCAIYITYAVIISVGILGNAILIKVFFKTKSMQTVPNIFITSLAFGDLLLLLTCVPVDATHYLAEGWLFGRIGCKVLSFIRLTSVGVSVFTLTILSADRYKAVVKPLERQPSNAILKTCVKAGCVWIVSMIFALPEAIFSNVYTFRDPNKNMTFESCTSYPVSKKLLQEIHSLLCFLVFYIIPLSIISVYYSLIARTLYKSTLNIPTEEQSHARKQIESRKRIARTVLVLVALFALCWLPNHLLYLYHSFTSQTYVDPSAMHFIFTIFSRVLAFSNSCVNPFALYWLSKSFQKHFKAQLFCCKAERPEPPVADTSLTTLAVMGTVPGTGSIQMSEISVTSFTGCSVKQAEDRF
Description: Agonistic activity at human BRS3 expressed in HEK293AEO cells by aequorin bioluminescence assay.

Test [2] has as its target T2, Bombesin receptor subtype-3 (Homo sapiens) (UniProt P32247).
T2 sequence (whole entry): T1 sequence (P32247 whole entry)
Description: Agonistic activity at human BRS3 expressed in HEK293AEO at 10 uM cells by aequorin bioluminescence assay relative to dY peptide.

The target of test [3] is T3, Bombesin receptor subtype-3 (Mus musculus, UniProt O54798).
T3 sequence (O54798 whole entry): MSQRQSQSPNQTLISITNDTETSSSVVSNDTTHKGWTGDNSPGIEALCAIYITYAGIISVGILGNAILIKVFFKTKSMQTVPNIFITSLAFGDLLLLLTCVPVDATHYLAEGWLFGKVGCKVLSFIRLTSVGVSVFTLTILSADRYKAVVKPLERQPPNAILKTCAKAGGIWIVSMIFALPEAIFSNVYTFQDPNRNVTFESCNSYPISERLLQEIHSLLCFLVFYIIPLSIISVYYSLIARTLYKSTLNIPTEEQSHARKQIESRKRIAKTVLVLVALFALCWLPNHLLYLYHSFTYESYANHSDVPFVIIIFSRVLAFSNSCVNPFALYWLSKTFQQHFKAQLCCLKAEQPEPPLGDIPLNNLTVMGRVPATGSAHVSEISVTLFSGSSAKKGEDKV
Kind of test: Agonistic activity at mouse BRS3 expressed in HEK293AEO cells by aequorin bioluminescence assay.

Test [4] has as its target T4, Bombesin receptor subtype-3 (Mus musculus) (UniProt O54798).
T4 sequence (whole entry): T3 sequence (O54798 whole entry)
Kind of test: Agonistic activity at mouse BRS3 expressed in HEK293AEO cells at 10 uM by aequorin bioluminescence assay relative to dY peptide.

In general, EC50 refers to the concentration at which the effect is half-maximal. A lower EC50 goes with higher potency in that assay. As for `CCCCc1cnc(/C=C/c2ccc(-c3ccccc3C(=O)O)cc2)[nH]1`, the values for the concentration giving a half-maximal response (EC50) in test [1] and in test [3] were 4380 nM and 10000 nM, respectively. The Activity in test [2] came out at 8%; in test [4], 39%.

Regarding `O=C(O)c1ccccc1-c1ccc(CCc2ncc(CC3CC3)[nH]2)cc1`, the EC50 in test [1] was found to be 1000 nM; in test [3], 72 nM. The Activity in test [2] stood at 96%; in test [4], 144%.

Turning to `COc1ccccc1Cc1cnc(CCc2ccc(-c3ccccc3C(=O)O)cc2)[nH]1`, the half-maximal effective concentration (EC50) is 1720 nM in test [1] and 163 nM in test [3]. Also, the Activity in test [2] is 88%; in test [4] it was 101%.

On to `O=C(O)c1ccccc1-c1ccc(CCc2ncc(Cc3ccccc3Cl)[nH]2)cc1`, for which the half-maximal effective concentration (EC50) was 292 nM in test [1] and 22 nM in test [3]. Besides, the Activity in test [2] stood at 100%; in test [4], 109%.

As for `N#Cc1ccccc1Cc1cnc(CCc2ccc(-c3ccccc3C(=O)O)cc2)[nH]1`, the EC50 is 5480 nM in test [1] and 642 nM in test [3]. The Activity stood at 51% in test [2] and 139% in test [4].

`CC(C)(C)c1cnc(CCc2ccc(-c3ccccc3C(=O)O)cc2)[nH]1`: the EC50 came to 4330 nM in test [1] and 2740 nM in test [3]. Besides, the Activity in test [2] is 45%; in test [4], 108%.

With `N#Cc1cccc(Cc2cnc(CCc3ccc(-c4ccccc4C(=O)O)cc3)[nH]2)c1`, the EC50 is 812 nM in test [1] and 20 nM in test [3]. Besides, the Activity in test [2] stood at 95%; in test [4], 102%.

In the case of `COc1cccc(Cc2cnc(CCc3ccc(-c4ccccc4C(=O)O)cc3)[nH]2)c1`, the values for the EC50 in test [1] and in test [3] were 4120 nM and 79 nM, respectively. In addition, the Activity turned out to be 73% in test [2] and 80% in test [4].

Consider `O=C(O)c1ccccc1-c1ccc(CCc2ncc(Cc3ccccc3F)[nH]2)cc1`, for which the concentration for a half-maximal effect (EC50) in test [1] was found to be 177 nM; in test [3] it was 9.5 nM. For the same compound, the Activity in test [2] turned out to be 108%; in test [4] it was 121%.

As to `O=C(O)c1ccccc1-c1ccc(CCc2ncc(CC3CCCCCC3)[nH]2)cc1`, the figures for the concentration giving a half-maximal response (EC50) in test [1] and in test [3] were 88 nM and 5.7 nM, respectively. The Activity in test [2] was 106%; in test [4] it was 102%.

In the case of `O=C(O)c1ccccc1-c1ccc(CCc2ncc(Cc3ccc(Cl)cc3)[nH]2)cc1`, the EC50 in test [1] stood at 2290 nM; in test [3], 102 nM. The results for the Activity in test [2] and in test [4] were 89% and 105%, respectively.

`O=C(O)c1ccccc1-c1ccc(CCc2ncc(C3CCCCC3)[nH]2)cc1`: the EC50 came to 375 nM in test [1] and 14.7 nM in test [3]. In addition, the Activity turned out to be 102% in test [2] and 116% in test [4].

In the case of `O=C(O)c1ccccc1-c1ccc(CCc2ncc(CC3CCC3)[nH]2)cc1`, the EC50 in test [1] came out at 588 nM; in test [3], 7.1 nM. Also, the results for the Activity in test [2] and in test [4] were 105% and 99%, respectively.

`O=C(O)c1ccccc1-c1ccc(CCc2ncc(Cc3cccc(Cl)c3)[nH]2)cc1`: the EC50 in test [1] was determined as 825 nM; in test [3], 31 nM. Also, the Activity came out at 91% in test [2] and 98% in test [4].

As to `O=C(O)c1ccccc1-c1ccc(CCc2ncc(Cc3cccc(F)c3F)[nH]2)cc1`, the EC50 in test [1] worked out at 87 nM; in test [3] it was 8 nM. Besides, the values for the Activity in test [2] and in test [4] were 104% and 110%, respectively.

`CCC(C)(C)Cc1c[nH]c(CCc2ccc(-c3ccccc3C(=O)O)cc2)n1`: the EC50 in test [1] came to 25 nM; in test [3] it was 9.6 nM. Further, the Activity in test [2] was 101%; in test [4] it was 94%.

For the compound `CCCCc1cnc(CCCc2ccc(-c3ccccc3C(=O)O)cc2)[nH]1`, the EC50 in test [1] stood at 5600 nM; in test [3], 382 nM. Further, the values for the Activity in test [2] and in test [4] were 54% and 101%, respectively.

Regarding `CC(C)CCc1cnc(CCc2ccc(-c3ccccc3C(=O)O)cc2)[nH]1`, the EC50 in test [1] amounted to 119 nM; in test [3], 10 nM. Besides, the Activity stood at 112% in test [2] and 111% in test [4].

With `Cc1ccccc1Cc1cnc(CCc2ccc(-c3ccccc3C(=O)O)cc2)[nH]1`, the concentration giving a half-maximal response (EC50) in test [1] was found to be 127 nM; in test [3], 9.3 nM. The Activity is 93% in test [2] and 106% in test [4].

For the compound `O=C(O)c1ccccc1-c1ccc(CCc2ncc(CCC3CCCCC3)[nH]2)cc1`, the concentration giving a half-maximal response (EC50) in test [1] came to 642 nM; in test [3], 33 nM. Further, the Activity in test [2] amounted to 94%; in test [4], 101%.

In the case of `CCCCc1cnc(C(C)Cc2ccc(-c3ccccc3C(=O)O)cc2)[nH]1` (stereo not drawn), the EC50 worked out at 2760 nM in test [1] and 184 nM in test [3]. The results for the Activity in test [2] and in test [4] were 79% and 110%, respectively.

As for `O=C(O)c1ccccc1-c1ccc(CCc2ncc(CC3CCCC3)[nH]2)cc1`, the EC50 in test [1] turned out to be 133 nM; in test [3] it was 7.9 nM. The Activity in test [2] turned out to be 102%; in test [4], 94%.

Take `O=C(O)c1ccccc1-c1ccc(CCc2ncc(CC3CCOCC3)[nH]2)cc1`: the EC50 in test [1] was 338 nM; in test [3], 23 nM. Further, the values for the Activity in test [2] and in test [4] were 96% and 106%, respectively.

For the compound `O=C(O)c1ccccc1-c1ccc(CCc2nc(-c3ccccc3)c[nH]2)cc1`, the EC50 in test [1] was found to be 4950 nM; in test [3] it was 872 nM.

Consider `CCCCc1cnc(C(CCC)Cc2ccc(-c3ccccc3C(=O)O)cc2)[nH]1` (stereo not drawn), for which the EC50 in test [1] came to 1180 nM; in test [3], 165 nM. Also, the values for the Activity in test [2] and in test [4] were 96% and 102%, respectively.

Turning to `O=C(O)c1ccccc1-c1ccc(CCc2ncc(-c3ccccc3)[nH]2)cc1`, the Activity in test [2] is 30%; in test [4] it was 101%.

For `O=C(O)c1ccccc1-c1ccc(CCc2ncc(Cc3ccc(F)cc3)[nH]2)cc1`, the EC50 was 1600 nM in test [1] and 50 nM in test [3]. Besides, the Activity in test [2] came out at 84%; in test [4], 104%.

As to `CCCCc1cnc(C(CC)Cc2ccc(-c3ccccc3C(=O)O)cc2)[nH]1` (stereo not drawn), the EC50 turned out to be 2720 nM in test [1] and 340 nM in test [3]. Besides, the Activity in test [2] was found to be 76%; in test [4] it was 104%.

For the compound `N#Cc1ccc(Cc2cnc(CCc3ccc(-c4ccccc4C(=O)O)cc3)[nH]2)cc1`, the EC50 in test [1] was 5890 nM; in test [3], 723 nM. Besides, the Activity was found to be 25% in test [2] and 85% in test [4].

For `O=C(O)c1ccccc1-c1ccc(CCc2ncc(Cc3ccccc3)[nH]2)cc1`, the values for the EC50 in test [1] and in test [3] were 205 nM and 11 nM, respectively. Besides, the Activity in test [2] was 109%; in test [4], 111%.

`O=C(O)c1ccccc1-c1ccc(CCc2ncc(Cc3cccc(F)c3)[nH]2)cc1`: the EC50 in test [1] came to 159 nM; in test [3], 7.9 nM. The results for the Activity in test [2] and in test [4] were 107% and 108%, respectively.

As to `O=C(O)c1ccccc1-c1ccc(CCc2ncc(CCc3ccccc3)[nH]2)cc1`, the EC50 was determined as 1320 nM in test [1] and 174 nM in test [3]. Also, the Activity in test [2] turned out to be 86%; in test [4], 89%.

On to `O=C(O)c1ccccc1-c1ccc(CCc2ncc(CC3CCCCC3)[nH]2)cc1`, for which the EC50 was determined as 41 nM in test [1] and 7.3 nM in test [3]. Moreover, the Activity is 104% in test [2] and 102% in test [4].

`CCCCc1cnc(Cc2ccc(-c3ccccc3C(=O)O)cc2)[nH]1`: the EC50 in test [1] and in test [3] was above 10000 nM throughout. For the same compound, the Activity in test [2] and in test [4] was 0% in each case.

Turning to `CCCCc1cnc(C(CCCC)Cc2ccc(-c3ccccc3C(=O)O)cc2)[nH]1` (stereo not drawn), the EC50 was determined as 2660 nM in test [1] and 527 nM in test [3]. Further, the results for the Activity in test [2] and in test [4] were 66% and 96%, respectively.

Turning to `CCC(C)(CC)Cc1cnc(CCc2ccc(-c3ccccc3C(=O)O)cc2)[nH]1`, the EC50 in test [1] was found to be 76 nM; in test [3] it was 30 nM. Moreover, the results for the Activity in test [2] and in test [4] were 97% and 116%, respectively.

On to `Cc1ccc(Cc2cnc(CCc3ccc(-c4ccccc4C(=O)O)cc3)[nH]2)cc1`, for which the results for the EC50 in test [1] and in test [3] were 2660 nM and 162 nM, respectively. For the same compound, the Activity in test [2] came to 88%; in test [4] it was 120%.

As to `CCCCc1cnc(C(Cc2ccc(-c3ccccc3C(=O)O)cc2)C(C)C)[nH]1` (stereo not drawn), the EC50 in test [1] turned out to be 4620 nM; in test [3], 2240 nM. Moreover, the Activity in test [2] is 60%; in test [4], 87%.

Values taken from ChEMBL document CHEMBL1155395, “Discovery of substituted biphenyl imidazoles as potent, bioavailable bombesin receptor subtype-3 agonists” (Bioorg Med Chem Lett, 2010).
